Results: patent US9540343B2 (Gilead Sciences, Inc., priority 2011, dated 2017)

What was measured:
[1] = in vitro; conditions: human, uninfected MT-4 cells, CC50 (nM), same protocol as Test A, CellTiter-Glo
In short: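 Cytoprotection read-out: CellTiter-Glo chemiluminescence after 5 days at 37 °C of HIV-IIIb-infected MT-4 cells (m.o.i. 0.003) with compound in 10-point 3-fold dilutions, quadruplicate, 10% FBS. Cytotoxicity (CC50) measured identically without virus.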

[2] = test system: HIV-IIIb; experiment: Test A: Antiviral assay in MT4 cells; type: cell-based, HIV-1; conditions: MT-4 cells infected with HIV-IIIb, 5 days, CellTiter-Glo; for inhibition at 2 µM: Human immunodeficiency virus 1, IIIB, MT4, 120 h, read-out: % inhibition at 2 μM, percent inhibition of virus-induced cell killing, from dose response curve at 2 uM drug

| Compound | CC50 at 5 days [1] [nM] | inhibition at 2 µM [2] [%] | % inhibition at 2 μM ([2]; percent inhibition of virus-induced cell killing, from dose response curve at 2 uM drug) [%] |
| --- | --- | --- | --- |
| CC(C)(C)OC(=O)N1[C@@H](c2ccccc2)CC[C@H]1C(=O)N[C@@H](Cc1cc(F)cc(F)c1)c1ncccc1-c1ccc(F)c(C(N)=O)c1 [Example 139, (2S,5R)-tert-butyl 2-((S)-1-(3-(3-carbamoyl-4-fluorophenyl)pyridin-2-yl)-2-(3,5-difluorophenyl)ethylcarbamoyl)-5-phenylpyrrolidine-1-carboxylate] | 14000 | 8 |  |
| CC(C)(C)OC(=O)N1C(=O)CC[C@H]1C(=O)N[C@@H](Cc1cc(F)cc(F)c1)c1ncccc1-c1ccc(F)c(C(N)=O)c1 [Example 140, (S)-tert-butyl 2-((S)-1-(3-(3-carbamoyl-4-fluorophenyl)pyridin-2-yl)-2-(3,5-difluorophenyl)ethylcarbamoyl)-5-oxopyrrolidine-1-carboxylate] | > 53000 | 0 |  |
| NC(=O)c1cc(-c2cccnc2[C@H](Cc2cc(F)cc(F)c2)NC(=O)Cc2n[nH]c3ccc(C(F)(F)F)cc23)ccc1F [Example 141G, (S)-5-(2-(2-(3,5-difluorophenyl)-1-(2-(5-(trifluoromethyl)-1H-indazol-3-yl)acetamido)ethyl)pyridin-3-yl)-2-fluorobenzamide] | 21800 | 4 |  |
| NC(=O)c1cc(-c2cccnc2[C@H](Cc2cc(F)cc(F)c2)NC(=O)Cn2nc(OCc3ncccn3)c3c2CCCC3)ccc1F [Example 142C, (S)-5-(2-(2-(3,5-difluorophenyl)-1-(2-(3-(pyrimidin-2-ylmethoxy)-4,5,6,7-tetrahydro-1H-indazol-1-yl)acetamido)ethyl)pyridin-3-yl)-2-fluorobenzamide] | > 53200 | 23 |  |
| NC(=O)c1cc(-c2cccnc2[C@H](Cc2cc(F)cc(F)c2)NC(=O)Cn2nc3c(c2C(F)(F)OCc2ccccn2)CCCC3)ccc1F [Example 143, (S)-5-(2-(1-(2-(3-(difluoro(pyridin-2-ylmethoxy)methyl)-4,5,6,7-tetrahydro-2H-indazol-2-yl)acetamido)-2-(3,5-difluorophenyl)ethyl)pyridin-3-yl)-2-fluorobenzamide] | 19900 | 10 |  |
| NC(=O)c1cccc(-c2cccnc2[C@H](Cc2cc(F)cc(F)c2)NC(=O)Cn2nc(C(F)(F)F)c3c2COCC3)c1 [Example 144, (S)-3-(2-(2-(3,5-difluorophenyl)-1-(2-(3-(trifluoromethyl)-4,5-dihydropyrano[3,4-c]pyrazol-1(7H)-yl)acetamido)ethyl)pyridin-3-yl)benzamide] | > 53000 | 89 |  |
| CC(C)(C)OC(=O)N1C[C@H](OCc2ccccc2)C[C@H]1C(=O)N[C@@H](Cc1cc(F)cc(F)c1)c1ncccc1-c1ccc(F)c(C(N)=O)c1 [Example 145, (2S,4R)-tert-butyl 4-(benzyloxy)-2-((S)-1-(3-(3-carbamoyl-4-fluorophenyl)pyridin-2-yl)-2-(3,5-difluorophenyl)ethylcarbamoyl)pyrrolidine-1-carboxylate] | 22400 | 0 |  |
| O=C(Cn1[nH]c(=O)c2c1CCCC2)N[C@@H](Cc1cc(F)cc(F)c1)c1ncccc1-c1ccc(Cl)cc1 [Example 146, (S)—N-(1-(3-(4-chlorophenyl)pyridin-2-yl)-2-(3,5-difluorophenyl)ethyl)-2-(3-oxo-2,3,4,5,6,7-hexahydro-1H-indazol-1-yl)acetamide] | 20600 | 66 |  |
| NC(=O)c1cc(-c2cccnc2[C@H](Cc2cc(F)cc(F)c2)NC(=O)Cn2nc(-n3cccn3)ccc2=O)ccc1F [Example 147, (S)-5-(2-(2-(3,5-difluorophenyl)-1-(2-(6-oxo-3-(1H-pyrazol-1-yl)pyridazin-1(6H)-yl)acetamido)ethyl)pyridin-3-yl)-2-fluorobenzamide] | > 53200 | 10 |  |
| CC(C)(C)OC(=O)N1C[C@@H](c2ccccc2)C[C@H]1C(=O)N[C@@H](Cc1cc(F)cc(F)c1)c1ncccc1-c1ccc(F)c(C(N)=O)c1 [Example 148, (2S,4R)-tert-butyl 2-((S)-1-(3-(3-carbamoyl-4-fluorophenyl)pyridin-2-yl)-2-(3,5-difluorophenyl)ethylcarbamoyl)-4-phenylpyrrolidine-1-carboxylate] | 12300 | 11 |  |
| NC(=O)c1cc(-c2cccnc2[C@H](Cc2cc(F)cc(F)c2)NC(=O)Cn2ccnc2-c2ccccc2)ccc1F [Example 149, (S)-5-(2-(2-(3,5-difluorophenyl)-1-(2-(2-phenyl-1H-imidazol-1-yl)acetamido)ethyl)pyridin-3-yl)-2-fluorobenzamide] | > 53200 | 2 |  |
| NC(=O)c1cc(-c2cccnc2[C@H](Cc2cc(F)cc(F)c2)NC(=O)Cn2nc(C(F)(F)F)c3c2CCC(F)(F)C3)ccc1F [Example 150, (S)-5-(2-(1-(2-(5,5-difluoro-3-(trifluoromethyl)-4,5,6,7-tetrahydro-1H-indazol-1-yl)acetamido)-2-(3,5-difluorophenyl)ethyl)pyridin-3-yl)-2-fluorobenzamide] | 18400 | 15 |  |
| NC(=O)c1cc(-c2cccnc2[C@H](Cc2cc(F)cc(F)c2)NC(=O)Cn2nc3c(c2C(F)(F)F)CCC3)ccc1F [Example 151E, (S)-5-(2-(2-(3,5-difluorophenyl)-1-(2-(3-(trifluoromethyl)-5,6-dihydrocyclopenta[c]pyrazol-2(4H)-yl)acetamido)ethyl)pyridin-3-yl)-2-fluorobenzamide] | 20300 | 11 |  |
| NC(=O)c1cc(-c2cccnc2[C@H](Cc2cc(F)cc(F)c2)NC(=O)Cc2nc3cccc4c3n2CCC4)ccc1F [Example 152D, (S)-5-(2-(2-(3,5-difluorophenyl)-1-(2-(5,6-dihydro-4H-imidazo[4,5,1-ij]quinolin-2-yl)acetamido)ethyl)pyridin-3-yl)-2-fluorobenzamide] | 28400 | 81 |  |
| NC(=O)c1cc(-c2cccnc2[C@H](Cc2cc(F)cc(F)c2)NC(=O)C2CCCN2C(=O)C2CCCC2)ccc1F (stereo partly drawn) [Example 153, N—((S)-1-(3-(3-carbamoyl-4-fluorophenyl)pyridin-2-yl)-2-(3,5-difluorophenyl)ethyl)-1-(cyclopentanecarbonyl)pyrrolidine-2-carboxamide] | 17300 | 10 |  |
| NC(=O)c1cc(-c2cccnc2[C@H](Cc2cc(F)cc(F)c2)NC(=O)Cn2nc(C(F)(F)F)c3c2C(O)C2CC32)ccc1F (stereo partly drawn) [Example 154, 5-(2-((1S)-2-(3,5-difluorophenyl)-1-(2-(5-hydroxy-3-(trifluoromethyl)-3b,4,4a,5-tetrahydro-1H-cyclopropa[3,4]cyclopenta[1,2-c]pyrazol-1-yl)acetamido)ethyl)pyridin-3-yl)-2-fluorobenzamide] | 36800 |  | 90 |
| NC(=O)c1cc(-c2cccnc2[C@H](Cc2cc(F)cc(F)c2)NC(=O)[C@@H]2C[C@@H](OCc3ccccc3)CN2)ccc1F [Example 157, (2S,4R)-4-(benzyloxy)-N—((S)-1-(3-(3-carbamoyl-4-fluorophenyl)pyridin-2-yl)-2-(3,5-difluorophenyl)ethyl)pyrrolidine-2-carboxamide] | 38300 | 10 |  |
| CC(C)(C)OC(=O)N1[C@@H](C(=O)N[C@@H](Cc2cc(F)cc(F)c2)c2ncccc2-c2ccc(F)c(C(N)=O)c2)CC[C@H]1c1ccccc1 [Example 158, (2R,5S)-tert-butyl 2-((S)-1-(3-(3-carbamoyl-4-fluorophenyl)pyridin-2-yl)-2-(3,5-difluorophenyl)ethylcarbamoyl)-5-phenylpyrrolidine-1-carboxylate] | 8500 | 0 |  |
| NC(=O)c1cc(-c2cccnc2[C@H](Cc2cc(F)cc(F)c2)NC(=O)Cn2nc(C(F)(F)Oc3ccccc3)c3c2CCCC3)ccc1F [Example 159, (S)-5-(2-(1-(2-(3-(difluoro(phenoxy)methyl)-4,5,6,7-tetrahydro-1H-indazol-1-yl)acetamido)-2-(3,5-difluorophenyl)ethyl)pyridin-3-yl)-2-fluorobenzamide] | 19100 | 84 |  |
| NC(=O)c1cc(-c2cccnc2[C@H](Cc2cc(F)cc(F)c2)NC(=O)Cn2nc3c(c2C(F)F)CC2CC32)ccc1F (stereo partly drawn) [Example 160, 5-(2-((1S)-1-(2-(3-(difluoromethyl)-4,4-a,5,5a-tetrahydro-2H-cyclopropa[4,5]cyclopenta[1,2-c]pyrazol-2-yl)acetamido)-2-(3,5-difluorophenyl)ethyl)pyridin-3-yl)-2-fluorobenzamide] | 29300 | 45 |  |
| CC(C)(C)OC(=O)N1C[C@@H](Oc2ccccc2)C[C@H]1C(=O)N[C@@H](Cc1cc(F)cc(F)c1)c1ncccc1-c1ccc(F)c(C(N)=O)c1 [Example 161, (2S,4S)-tert-butyl 2-((S)-1-(3-(3-carbamoyl-4-fluorophenyl)pyridin-2-yl)-2-(3,5-difluorophenyl)ethylcarbamoyl)-4-phenoxypyrrolidine-1-carboxylate] | 9310 | 0 |  |
| NC(=O)c1cc(-c2cccnc2[C@H](Cc2cc(F)cc(F)c2)NC(=O)COc2ccccc2)ccc1F [Example 164, (S)-5-(2-(2-(3,5-difluorophenyl)-1-(2-phenoxyacetamido)ethyl)pyridin-3-yl)-2-fluorobenzamide] | 29900 | 2 |  |
| NC(=O)c1cc(-c2cccnc2[C@H](Cc2cc(F)cc(F)c2)NC(=O)[C@@H]2C[C@H](Oc3ccccc3)CN2)ccc1F [Example 165, (2S,4S)—N—((S)-1-(3-(3-carbamoyl-4-fluorophenyl)pyridin-2-yl)-2-(3,5-difluorophenyl)ethyl)-4-phenoxypyrrolidine-2-carboxamide] | 52500 | 0 |  |
